Reference: patent publication US8470552B2, “Strategy to reduce lactic acid production and control PH in animal cell culture” (Keck Graduate Institute, priority 2009, dated 2013)

Tests used:
[1] = test system: Lactate Adapted cells (DG44 CHO); assay: Lactate Adapted cells continuously passaged in medium containing 0 to 40 mM lactate; type: cell-based, Chinese Hamster
Procedure: Unless otherwise noted, the experiments described herein were conducted with a dihydrofolate reductase deficient (DHFR^−) Chinese Hamster Ovary cell line, DG44 CHO (Invitrogen, Carlsbad, Calif.). Prior to experimentation, the cells were transfected with a pOPTI-Vec TOPO plasmid vector containing the gene for a recombinant monoclonal ScFv-Fc1 protein fragment. Transfected cells were grown in selective OptiCHO medium (Invitrogen, Carlsbad, Calif.) and the recombinant gene copy number was further amplified by supplementing the medium with 250 nM methotrexate. The amount of recombinant antibody fragment expressed was less than 10 mg/L and not subsequently measured. This cell line was used to test the feasibility of the novel approach in terms of cell growth, death, and metabolism. Cells were frozen down and hereafter referred to as “Native Control” cells. […]
Cell concentration and viability was measured by the trypan blue exclusion method using a ViCell analyzer (Beckman Coulter, Fullerton, Calif.). […] Osmolality was measured by freezing point depression on a Model 3250 Osmometer (Advanced Instruments, Norwood, Mass.) […]
Metabolic flux was calculated as specific nutrient consumption rate or specific metabolite production rate (qp) using Equations 5 and 6, where P is nutrient such as glucose or glutamine or metabolite such as lactic acid or ammonium) concentration: […]

[2] = test system: DG44 CHO (Native Control cells); assay: Native control cells grown in various levels of Na-lactate and NaCl (shaker flasks); type: cell-based, Chinese Hamster
Procedure: Unless otherwise noted, the experiments described herein were conducted with a dihydrofolate reductase deficient (DHFR^−) Chinese Hamster Ovary cell line, DG44 CHO (Invitrogen, Carlsbad, Calif.). Prior to experimentation, the cells were transfected with a pOPTI-Vec TOPO plasmid vector containing the gene for a recombinant monoclonal ScFv-Fc1 protein fragment. Transfected cells were grown in selective OptiCHO medium (Invitrogen, Carlsbad, Calif.) and the recombinant gene copy number was further amplified by supplementing the medium with 250 nM methotrexate. The amount of recombinant antibody fragment expressed was less than 10 mg/L and not subsequently measured. This cell line was used to test the feasibility of the novel approach in terms of cell growth, death, and metabolism. Cells were frozen down and hereafter referred to as “Native Control” cells. All subsequent experiments were performed without methotrexate.
Cell concentration and viability was measured by the trypan blue exclusion method using a ViCell analyzer (Beckman Coulter, Fullerton, Calif.). Off-line measurements were taken with a Bioprofile 400 (Nova Biomedical, Waltham, Mass.) for glucose, glutamine, lactate, carbon dioxide, oxygen, ammonium concentration and pH levels. Osmolality was measured by freezing point depression on a Model 3250 Osmometer (Advanced Instruments, Norwood, Mass.)
In the first set of experiments, illustrated in FIGS. 1-6, cultures were grown at 30 ml working volume in 125 ml shaker flasks (Corning, Lowell, Mass.) placed in an incubator at 37° C., 135 rpm, and 8% CO2. Continuous passages were performed every 3 to 4 days in duplicate shaker flasks inoculated at a seeding density of 1.0×10^6 cell/ml. After the cells were adapted to the high lactate concentration, longer-duration batch cultures were performed in triplicate shaker flasks for 12 days starting at a seeding density of 0.3×10^6 cells/ml. A sodium (D/L)-lactate stock solution (Sigma, Lowell, Mass.) was used for lactate supplementation. All reported lactate values are for the physiologically relevant L-Lactate isomer.
Specific rates were determined on a time interval bases by measuring daily viable and total cell density (VCD or TCD) and metabolite concentrations. Specific net growth rate (μN), was calculated as change in VCD over a time interval t1 to t2 using Equation 1: […]
Metabolic flux was calculated as specific nutrient consumption rate or specific metabolite production rate (qp) using Equations 5 and 6, where P is nutrient such as glucose or glutamine or metabolite such as lactic acid or ammonium) concentration:
Native control cells were grown in various levels of Na-lactate and NaCl to evaluate the impact each component had on growth and viability. Media compositions are discussed in Table 1.

**Q.** Which lactic acid production ([1]; cultures inoculated between 35 to 40 mM lactate (FIG. 3)) does the source give for CC(O)C(=O)[O-].[Na+] (stereo not shown) [Na-lactate, sodium lactate] here?
**A.** The lactic acid production was “substantially reduced”.

**Q.** And the “initial lactate concentration at zero net flux of lactic acid production” value ([1]; predicted from FIG. 3)?
**A.** The value was “above 40 mM”.

**Q.** What about the “specific lactic acid production” value ([2]; 27 mM lactate (FIG. 1C)) of the same molecule?
**A.** Its value is “dramatic drop”.

**Q.** What about the “specific lactic acid production” value ([2]; 40 mM lactate (FIG. 1C)) of the same molecule?
**A.** Its value is “clear shift from production to consumption”.

**Q.** And the “specific total growth and death rate” value ([2]; non-adapted cells, Na-lactate compared with NaCl (FIG. 1B))?
**A.** The value was “impacted specific total growth and death rate the most”.

**Q.** What about the “viable cell density (VCD)” value ([2]; non-adapted cells, increasing lactate levels (FIG. 1A)) of the same molecule?
**A.** Its value is “clear reduction”.

**Q.** [Cl-].[Na+] [NaCl, sodium chloride, reference compound] was tested. Which “specific lactic acid production” value ([2]; NaCl supplementation (FIG. 1C)) did it give?
**A.** Its value is “No such effect”.
